ChEMBL document CHEMBL1201862, “PubChem BioAssay data set” (2004)
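Step 1: Grow cells in 96-well plates. Step 2: Expose to compound for 48 hours at 5 concentrations. Step 3: Interpolate endpoints linearly; if unreached, use highest concentration. GI50 marks 50% less growth.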 Activity calls are given as the source filed them. No stated cut-off is given here; in the data, active = GI50 up to about 1.1 µM and inactive = higher.

Tests used:
Experiment in all cases: inhibition of tumour cell growth, NCI panel, 48 h
[1] = system: HOP-18
[2] = system: SNB-78
[3] = system: DMS-273
[4] = system: RXF 631
[5] = system: DLD-1
[6] = system: DMS-114
[7] = system: M19-MEL
[8] = system: XF498
[9] = system: LXFL 529

Measured: GI50

O=C/C(=C(/Cl)c1ccc(O)cc1)c1ccccc1
inactive: [1] 20.2 µM | [2] 32.7 µM | [3] 18.8 µM | [4] 24.8 µM | [5] 23.5 µM | [6] 12.3 µM | [7] 19.7 µM | [8] 18.9 µM | [9] 25.4 µM

Cc1ccc2nc3c(C)c(Cl)c(=O)cc-3sc2c1
inactive: [1] 19.7 µM | [2] 32.2 µM | [3] 22.4 µM | [4] 24.3 µM | [5] 19.2 µM | [6] 2.97 µM | [7] 4.68 µM | [8] 10 µM | [9] 4.94 µM

Cn1cnc([N+](=O)[O-])c1Sc1ccccn1
inactive: [1] 14.9 µM | [2] > 100 µM | [3] > 100 µM | [4] > 100 µM | [5] > 100 µM | [6] > 100 µM | [7] > 100 µM | [8] 36.3 µM | [9] 70.5 µM

Cc1ccccc1C1=C(C(=O)Nc2ccc(Cl)c(Cl)c2)NC(=S)NC1N (configuration not stated)
inactive: [1] > 100 µM | [2] > 100 µM | [3] > 100 µM | [4] > 100 µM | [5] > 100 µM | [6] > 100 µM | [7] > 100 µM | [8] > 100 µM | [9] > 100 µM

C/C=C1\CN2CCc3c([nH]c4ccccc34)C2CC1CCO (configuration not stated)
inactive: [1] > 100 µM | [2] > 100 µM | [3] > 100 µM | [4] > 100 µM | [5] > 100 µM | [6] > 100 µM | [7] > 100 µM | [8] > 100 µM | [9] > 100 µM

Cc1ccccc1NC(=O)CC(=O)NNCC(=O)Nc1nnc(-c2ccccc2)s1
inactive: [1] 29 µM | [2] > 100 µM | [3] 73.6 µM | [4] > 100 µM | [5] 98.9 µM | [6] 43.6 µM | [7] > 100 µM | [8] 31.9 µM | [9] 39.2 µM

CN1CCc2c1nc(-c1cccnc1)c1c2N(C)CC1
inactive: [1] 60.4 µM | [2] > 100 µM | [3] > 100 µM | [4] > 100 µM | [5] > 100 µM | [6] > 100 µM | [7] > 100 µM | [8] > 100 µM | [9] > 100 µM

Cc1ccc(NC(=O)C(=O)C2C(=O)N(c3ccccc3)N=C2N)cc1C (configuration not stated)
inactive: [1] > 100 µM | [2] > 100 µM | [3] > 100 µM | [4] > 100 µM | [5] > 100 µM | [6] > 100 µM | [7] > 100 µM | [8] > 100 µM | [9] > 100 µM
